We go through six molecules from ChEMBL document CHEMBL1135053, “Affinity-driven selection of tripeptide inhibitors of ribonucleotide reductase” (Bioorg Med Chem Lett, 2002).

A short description of this test: Mouse ribonucleotide reductase (mRR) activity was determined by relative dissociation constant which was assayed for binding activity to mR1.

SMILES strings stand for the structures. Residues, ends and D or L forms follow the SMILES beside them. *: point of attachment. Fmoc = O=C(OCC1c2ccccc2-c2ccccc21)*

In turn, `O=C(N[C@H](C(=O)O)c1ccccc1)OCC1c2ccccc2-c2ccccc21` returned a Relative Kd of 31.
As for `CC(=O)N[C@@H](Cc1ccccc1)C(=O)N[C@H](C(=O)N[C@@H](CC(C)C)C(=O)N[C@@H](CC(=O)O)C(=O)N[C@@H](C)C(=O)N[C@@H](CC(=O)O)C(=O)N[C@@H](Cc1ccccc1)C(=O)O)[C@@H](C)O` (Ac-FTLDADF-OH), the figure is 1; as for `O=C(N[C@@H](Cc1c[nH]c2ccccc12)C(=O)N[C@@H](Cc1ccccc1)C(=O)N[C@@H](Cc1ccccc1)C(=O)O)OCC1c2ccccc2-c2ccccc21` (Fmoc-Trp-Phe-Phe-OH), 1.
As for `CC(C)C[C@H](NC(=O)OCC1c2ccccc2-c2ccccc21)C(=O)O`, the figure is 38; as for `O=C(N[C@@H](Cc1c[nH]c2ccccc12)C(=O)O)OCC1c2ccccc2-c2ccccc21`, 18.
Molecule `O=C(N[C@@H](Cc1ccccc1)C(=O)O)OCC1c2ccccc2-c2ccccc21` showed a Relative Kd of 22.
